Measured values as given in patent US20230092890A1, “1, 3, 4-Oxadiazole derivative compounds as histone deacetylase 6 inhibitor, and the pharmaceutical composition comprising the same” (Chong Kun Dang Pharmaceutical Corp., priority 2019, published 2023).

Columns and labels:
HDAC6 human recombinant = target: T1, HDAC6 human recombinant (Homo sapiens, UniProt Q9UBN7); assay: HDAC enzyme activity inhibition (in vitro), HDAC6 assay; type: biochemical; conditions: samples at 0.1, 1, 10, 100 and 1000 nM; 37° C. 60 minutes; fluorescence Ex 390, Em 460; read-out: HDAC6 IC50
T1 construct: purchased Calbiochem 382180
T1 sequence (Q9UBN7 1-1215): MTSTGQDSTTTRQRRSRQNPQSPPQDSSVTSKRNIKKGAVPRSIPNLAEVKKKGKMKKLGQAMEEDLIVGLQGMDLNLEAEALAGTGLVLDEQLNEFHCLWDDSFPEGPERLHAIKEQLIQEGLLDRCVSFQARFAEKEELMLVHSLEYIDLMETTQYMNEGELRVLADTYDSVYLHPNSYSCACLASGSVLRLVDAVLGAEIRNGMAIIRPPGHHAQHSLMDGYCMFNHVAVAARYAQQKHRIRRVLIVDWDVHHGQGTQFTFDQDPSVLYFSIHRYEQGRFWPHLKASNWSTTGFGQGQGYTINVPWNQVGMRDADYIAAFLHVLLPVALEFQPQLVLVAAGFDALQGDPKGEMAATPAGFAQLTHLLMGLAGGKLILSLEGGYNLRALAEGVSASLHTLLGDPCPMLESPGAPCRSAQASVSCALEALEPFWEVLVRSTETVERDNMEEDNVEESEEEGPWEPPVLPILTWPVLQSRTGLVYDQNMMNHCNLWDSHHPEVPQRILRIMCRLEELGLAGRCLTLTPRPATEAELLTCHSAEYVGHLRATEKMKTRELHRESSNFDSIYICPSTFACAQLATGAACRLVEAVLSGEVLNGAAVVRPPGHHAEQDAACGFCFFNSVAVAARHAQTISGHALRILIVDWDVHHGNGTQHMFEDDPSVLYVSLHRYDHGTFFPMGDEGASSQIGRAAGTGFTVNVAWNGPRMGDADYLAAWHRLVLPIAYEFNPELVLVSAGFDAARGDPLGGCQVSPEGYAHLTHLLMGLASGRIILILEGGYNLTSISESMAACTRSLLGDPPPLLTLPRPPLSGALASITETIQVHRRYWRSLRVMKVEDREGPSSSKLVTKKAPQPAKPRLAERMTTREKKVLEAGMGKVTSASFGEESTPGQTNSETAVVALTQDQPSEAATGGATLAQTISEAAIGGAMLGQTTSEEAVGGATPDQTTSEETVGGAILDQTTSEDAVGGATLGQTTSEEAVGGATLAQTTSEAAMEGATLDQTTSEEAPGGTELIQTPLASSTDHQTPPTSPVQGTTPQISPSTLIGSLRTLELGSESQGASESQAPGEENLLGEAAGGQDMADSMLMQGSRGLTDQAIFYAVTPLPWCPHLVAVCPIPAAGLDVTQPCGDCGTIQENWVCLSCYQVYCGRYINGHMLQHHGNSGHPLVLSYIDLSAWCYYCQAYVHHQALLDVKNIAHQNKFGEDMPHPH
In short: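 HDAC6 human recombinant enzyme with fluorimetric substrate; […]. Reaction 60 min at 37° C, then developer 30 min at 37° C; fluorescence read at Ex 390/Em 460.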

HDAC1 = target: T2, HDAC1 (Homo sapiens, UniProt Q13547); assay: HDAC enzyme activity inhibition (in vitro), HDAC1 Fluorimetric Drug Discovery Assay Kit; type: biochemical; conditions: samples at 100, 1000 and 10000 nM; 37° C. 60 minutes; fluorescence Ex 390, Em 460; read-out: HDAC1 IC50
T2 construct: purchased Enzolifesciences BML-AK511
In short: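 Compound incubated with enzyme 60 min at 37° C, then developer 30 min at 37° C; fluorescence read at Ex 390/Em 460. HDAC1 via fluorimetric kit, compounds at 100, 1000 and 10000 nM; HDAC6 human recombinant, compounds at 0.1, 1, 10, 100 and 1000 nM.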

T2 sequence (Q13547 whole entry): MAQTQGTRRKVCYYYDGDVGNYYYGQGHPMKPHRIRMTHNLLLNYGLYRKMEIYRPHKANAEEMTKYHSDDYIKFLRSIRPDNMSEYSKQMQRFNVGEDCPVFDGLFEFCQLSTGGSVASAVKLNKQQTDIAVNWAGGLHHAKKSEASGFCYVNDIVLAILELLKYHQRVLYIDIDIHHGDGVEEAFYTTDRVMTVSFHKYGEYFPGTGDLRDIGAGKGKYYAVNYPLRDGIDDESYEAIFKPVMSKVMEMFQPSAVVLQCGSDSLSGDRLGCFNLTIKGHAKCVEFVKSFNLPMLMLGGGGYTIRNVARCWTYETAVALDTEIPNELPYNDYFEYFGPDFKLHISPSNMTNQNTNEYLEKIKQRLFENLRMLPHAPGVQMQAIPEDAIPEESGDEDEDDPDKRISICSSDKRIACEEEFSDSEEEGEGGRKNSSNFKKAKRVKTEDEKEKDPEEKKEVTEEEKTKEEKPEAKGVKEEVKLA

Row | Compound | IC50 (HDAC6 human recombinant) [nM] | IC50 (HDAC1) [nM]
1 | COC(=O)c1cc2ccc(-c3ccc4c(c3)n(C)c(=O)n4Cc3ccc(-c4nnc(C(F)F)o4)cn3)cc2[nH]1 [Compound 244, methyl 6-(1-((5-(5-(difluoromethyl)-1,3,4-oxadiazole-2-yl)pyridine-2-yl)methyl)-3-methyl-2-oxo-2,3-dihydro-1H-benzo[d]imidazole-5-yl)-1H-indole-2-carboxylate] | 74 | > 10000
2 | O=c1oc2ccccc2n1Cc1ccc(-c2nnc(C(F)F)o2)cc1F [Compound 245, 3-(4-(5-(difluoromethyl)-1,3,4-oxadiazole-2-yl)-2-fluorobenzyl)benzo[d]oxazole-2(3H)-one] | 684 | > 10000
3 | O=c1oc2ccccc2n1Cc1ccc(-c2nnc(C(F)F)o2)cn1 [Compound 246, 3-((5-(5-(difluoromethyl)-1,3,4-oxadiazole-2-yl)pyridine-2-yl)methyl)benzo[d]oxazole-2(3H)-one] | 23 | > 10000
4 | Cn1c(=O)n(Cc2ccc(-c3nnc(C(F)F)o3)cn2)c2ccc(-c3cn[nH]c3)cc21 [Compound 247, 1-((5-(5-(difluoromethyl)-1,3,4-oxadiazole-2-yl)pyridine-2-yl)methyl)-3-methyl-5-(1H-pyrazole-4-yl)-1,3-dihydro-2H-benzo[d]imidazole-2-one] | 9 | > 10000
5 | CN1CC(n2c(=O)n(Cc3ccc(-c4nnc(C(F)F)o4)cn3)c3cc(F)c(-c4cccc5[nH]ccc45)cc32)C1 [Compound 257, 1-((5-(5-(difluoromethyl)-1,3,4-oxadiazole-2-yl)pyridine-2-yl)methyl)-6-fluoro-5-(1H-indole-4-yl)-3-(1-methylazetidine-3-yl)-1,3-dihydro-2H-benzo[d]imidazole-2-one] | 12 | > 10000
6 | CC(C)N1CCN(c2cc3c(cc2F)n(Cc2ccc(-c4nnc(C(F)F)o4)cn2)c(=O)n3C)CC1 [Compound 261, 1-((5-(5-(difluoromethyl)-1,3,4-oxadiazole-2-yl)pyridine-2-yl)methyl)-6-fluoro-5-(4-isopropylpiperazine-1-yl)-3-methyl-1,3-dihydro-2H-benzo[d]imidazole-2-one] | 57 | > 10000
7 | Cn1c(=O)n(Cc2ccc(-c3nnc(C(F)F)o3)cn2)c2cc(F)c(N3CCN(CC(F)(F)C(F)F)CC3)cc21 [Compound 262, 1-((5-(5-(difluoromethyl)-1,3,4-oxadiazole-2-yl)pyridine-2-yl)methyl)-6-fluoro-3-methy 1-5-(4-(2,2,3,3-tetrafluoropropyl)piperazine-1-yl)-1,3-dihydro-2H-benzo[d]imidazole-2-one] | 107 | > 10000

More lines, now with the values ahead:

Row | IC50 (HDAC6 human recombinant) [nM] | IC50 (HDAC1) [nM] | Compound
8 | 6 | > 10000 | CN1CCC(n2c(=O)n(Cc3ccc(-c4nnc(C(F)F)o4)cn3)c3cc(F)c(-c4cn[nH]c4)cc32)CC1 [Compound 248, 1-((5-(5-(difluoromethyl)-1,3,4-oxadiazole-2-yl)pyridine-2-yl)methyl)-6-fluoro-3-(1-methylpiperidine-4-yl)-5-(1H-pyrazole-4-yl)-1,3-dihydro-2H-benzo[d]imidazole-2-one]
9 | 18 | > 10000 | CN1CCC(n2c(=O)n(Cc3ccc(-c4nnc(C(F)F)o4)cn3)c3cc(F)c(-c4ccnn4C)cc32)CC1 [Compound 249, 1-((5-(5-(difluoromethyl)-1,3,4-oxadiazole-2-yl)pyridine-2-yl)methyl)-6-fluoro-5-(1-methyl-1H-pyrazole-5-yl)-3-(1-methylpiperidine-4-yl)-1,3-dihydro-2H-benzo[d]imidazole-2-one]
10 | 18 | > 10000 | CN1CCC(n2c(=O)n(Cc3ccc(-c4nnc(C(F)F)o4)cn3)c3cc(F)c(-c4ccc5c(ccn5C)c4)cc32)CC1 [Compound 250, 1-((5-(5-(difluoromethyl)-1,3,4-oxadiazole-2-yl)pyridine-2-yl)methyl)-6-fluoro-5-(1-methyl-1H-indole-5-yl)-3-(1-methylpiperidine-4-yl)-1,3-dihydro-2H-benzo[d]imidazole-2-one]
11 | 374 | > 10000 | CN1CCC(n2c(=O)n(Cc3ccc(-c4nnc(C(F)F)o4)cn3)c3cc(F)c(-c4ccc5c(ccn5C(=O)OC(C)(C)C)c4)cc32)CC1 [Compound 251, tert-butyl 5-(1-((5-(5-(difluoromethyl)-1,3,4-oxadiazole-2-yl)pyridine-2-yl)methyl)-6-fluoro-3-(1-methylpiperidine-4-yl)-2-oxo-2,3-dihydro-1H-benzo[d]imidazole-5-yl)-1H-indole-1-carboxylate]
12 | 207 | > 10000 | Cc1cc2cc(-c3cc4c(cc3F)n(Cc3ccc(-c5nnc(C(F)F)o5)cn3)c(=O)n4C3CCN(C)CC3)ccc2n1C(=O)OC(C)(C)C [Compound 252, tert-butyl 5-(1-((5-(5-(difluoromethyl)-1,3,4-oxadiazole-2-yl)pyridine-2-yl)methyl)-6-fluoro-3-(1-methylpiperidine-4-yl)-2-oxo-2,3-dihydro-1H-benzo[d]imidazole-5-yl)-2-methyl-1H-indole-1-carboxylate]
13 | 271 | > 10000 | CN1CCC(n2c(=O)n(Cc3ccc(-c4nnc(C(F)F)o4)cn3)c3cc(F)c(-c4cc5ccccc5n4C(=O)OC(C)(C)C)cc32)CC1 [Compound 253, tert-butyl 2-(1-((5-(5-(difluoromethyl)-1,3,4-oxadiazole-2-yl)pyridine-2-yl)methyl)-6-fluoro-3-(1-methylpiperidine-4-yl)-2-oxo-2,3-dihydro-1H-benzo[d]imidazole-5-yl)-1H-indole-1-carboxylate]
14 | 472 | > 10000 | CN1CCC(n2c(=O)n(Cc3ccc(-c4nnc(C(F)F)o4)cn3)c3cc(F)c(-c4cn(C(=O)OC(C)(C)C)c5ccc(Cl)cc45)cc32)CC1 [Compound 254]
15 | 48 | > 10000 | CN1CCC(n2c(=O)n(Cc3ccc(-c4nnc(C(F)F)o4)cn3)c3cc(F)c(-c4ccc5c(cnn5C(=O)OC(C)(C)C)c4)cc32)CC1 [Compound 255, tert-butyl 5-(1-((5-(5-(difluoromethyl)-1,3,4-oxadiazole-2-yl)pyridine-2-yl)methyl)-6-fluoro-3-(1-methylpiperidine-4-yl)-2-oxo-2,3-dihydro-1H-benzo[d]imidazole-5-yl)-1H-indazole-1-carboxylate]
16 | 8 | > 10000 | CN1CCC(n2c(=O)n(Cc3ccc(-c4nnc(C(F)F)o4)cn3)c3cc(F)c(-c4ccc5[nH]ncc5c4)cc32)CC1 [Compound 256, 1-((5-(5-(difluoromethyl)-1,3,4-oxadiazole-2-yl)pyridine-2-yl)methyl)-6-fluoro-5-(1H-indazole-5-yl)-3-(1-methylpiperidine-4-yl)-1,3-dihydro-2H-benzo[d]imidazole-2-one]
17 | 13 | > 10000 | CN1CC(n2c(=O)n(Cc3ccc(-c4nnc(C(F)F)o4)cn3)c3cc(F)c(-c4cccnc4)cc32)C1 [Compound 258, 1-((5-(5-(difluoromethyl)-1,3,4-oxadiazole-2-yl)pyridine-2-yl)methyl)-6-fluoro-3-(1-methylazetidine-3-yl)-5-(pyridine-3-yl)-1,3-dihydro-2H-benzo[d]imidazole-2-one]
18 | 14 | > 10000 | CN1CC(n2c(=O)n(Cc3ccc(-c4nnc(C(F)F)o4)cn3)c3cc(F)c(-c4ccncc4)cc32)C1 [Compound 259, 1-((5-(5-(difluoromethyl)-1,3,4-oxadiazole-2-yl)pyridine-2-yl)methyl)-6-fluoro-3-(1-methylazetidine-3-yl)-5-(pyridine-4-yl)-1,3-dihydro-2H-benzo[d]imidazole-2-one]
